Laboratory results published in US7626031B2, “Substituted 3-(diarylmethylene)indolin-2-ones and methods of their use” (Symphony Evolution, Inc., priority 2002, dated 2009).

Key:
c-Kit kinase = c-Kit kinase (Homo sapiens, UniProt P10721); experiment: c-Kit AlphaScreen kinase assay; type: biochemical
Method: (§1) Kinase activity and compound inhibition are investigated using one or more assay formats. The ATP concentrations for each assay are selected to be close to the Michaelis-Menten constant (KM) for each individual kinase. Dose-response experiments are performed at 10 different inhibitor concentrations in a 384-well plate format. […] Exemplary kinase assays are described below. KDR Assay
c-Kit biochemical activity was assessed using AlphaScreen™ (Perkin Elmer) technology, described above. Test compounds, ATP, biotinylated poly(Glu, Tyr) and c-Kit kinase were combined in a volume of 20 μL in a 384-well white, medium binding microtiter plate (Greiner). Reaction mixtures were incubated for 1 hr at ambient temperature. Reactions were quenched by addition of 10 uL of […] AlphaScreen bead suspension containing 75 mM Hepes, pH 7.4, 300 mM NaCl, 120 mM EDTA, 0.3% BSA and 0.03% Tween-20. After 16 hr incubation at ambient temperature plates were read using an AlphaQuest reader (Perkin Elmer).

EphA2 = EphA2 (Homo sapiens, UniProt P29317); experiment: Kinase assay, EphA2 (33P-ATP incorporation or luciferase-coupled ATP consumption); type: biochemical
In short: (§2)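 Radiometric format: γ-33P ATP incorporation into plate-immobilized myelin basic protein, enzyme 10 nM or 20 nM, 10 μM or 30 μM unlabeled ATP, 1 h at room temperature, 1% DMSO, scintillation counting; alternatively luciferase-measured ATP consumption with pEY substrate. ATP set near each kinase's KM; 10-point dose-response.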

EGFR = EGFR (Homo sapiens, UniProt P00533); experiment: Kinase assay, EGFR (33P-ATP incorporation or luciferase-coupled ATP consumption); type: biochemical
In short: as §2

Fyn = Fyn (Homo sapiens, UniProt P06241); experiment: Kinase assay, Fyn; type: biochemical
Chain of Fyn (P06241 whole entry, species assumed): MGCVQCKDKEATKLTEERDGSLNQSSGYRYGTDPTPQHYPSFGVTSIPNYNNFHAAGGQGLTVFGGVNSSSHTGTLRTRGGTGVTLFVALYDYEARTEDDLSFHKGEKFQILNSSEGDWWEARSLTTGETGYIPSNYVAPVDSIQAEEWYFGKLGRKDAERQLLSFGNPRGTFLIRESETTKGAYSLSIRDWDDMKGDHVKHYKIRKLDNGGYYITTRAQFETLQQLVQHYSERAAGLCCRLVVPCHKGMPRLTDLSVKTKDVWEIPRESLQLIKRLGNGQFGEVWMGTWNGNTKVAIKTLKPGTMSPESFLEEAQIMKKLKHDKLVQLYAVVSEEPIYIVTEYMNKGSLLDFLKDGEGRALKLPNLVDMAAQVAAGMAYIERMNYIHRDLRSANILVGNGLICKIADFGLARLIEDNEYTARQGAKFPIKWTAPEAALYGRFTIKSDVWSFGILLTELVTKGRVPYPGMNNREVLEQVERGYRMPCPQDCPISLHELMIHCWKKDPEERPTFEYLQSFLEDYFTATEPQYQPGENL
Method: as §1

IRK = IRK (Homo sapiens, UniProt P06213); experiment: Kinase assay, IRK; type: biochemical
Chain of IRK (P06213 28-1382): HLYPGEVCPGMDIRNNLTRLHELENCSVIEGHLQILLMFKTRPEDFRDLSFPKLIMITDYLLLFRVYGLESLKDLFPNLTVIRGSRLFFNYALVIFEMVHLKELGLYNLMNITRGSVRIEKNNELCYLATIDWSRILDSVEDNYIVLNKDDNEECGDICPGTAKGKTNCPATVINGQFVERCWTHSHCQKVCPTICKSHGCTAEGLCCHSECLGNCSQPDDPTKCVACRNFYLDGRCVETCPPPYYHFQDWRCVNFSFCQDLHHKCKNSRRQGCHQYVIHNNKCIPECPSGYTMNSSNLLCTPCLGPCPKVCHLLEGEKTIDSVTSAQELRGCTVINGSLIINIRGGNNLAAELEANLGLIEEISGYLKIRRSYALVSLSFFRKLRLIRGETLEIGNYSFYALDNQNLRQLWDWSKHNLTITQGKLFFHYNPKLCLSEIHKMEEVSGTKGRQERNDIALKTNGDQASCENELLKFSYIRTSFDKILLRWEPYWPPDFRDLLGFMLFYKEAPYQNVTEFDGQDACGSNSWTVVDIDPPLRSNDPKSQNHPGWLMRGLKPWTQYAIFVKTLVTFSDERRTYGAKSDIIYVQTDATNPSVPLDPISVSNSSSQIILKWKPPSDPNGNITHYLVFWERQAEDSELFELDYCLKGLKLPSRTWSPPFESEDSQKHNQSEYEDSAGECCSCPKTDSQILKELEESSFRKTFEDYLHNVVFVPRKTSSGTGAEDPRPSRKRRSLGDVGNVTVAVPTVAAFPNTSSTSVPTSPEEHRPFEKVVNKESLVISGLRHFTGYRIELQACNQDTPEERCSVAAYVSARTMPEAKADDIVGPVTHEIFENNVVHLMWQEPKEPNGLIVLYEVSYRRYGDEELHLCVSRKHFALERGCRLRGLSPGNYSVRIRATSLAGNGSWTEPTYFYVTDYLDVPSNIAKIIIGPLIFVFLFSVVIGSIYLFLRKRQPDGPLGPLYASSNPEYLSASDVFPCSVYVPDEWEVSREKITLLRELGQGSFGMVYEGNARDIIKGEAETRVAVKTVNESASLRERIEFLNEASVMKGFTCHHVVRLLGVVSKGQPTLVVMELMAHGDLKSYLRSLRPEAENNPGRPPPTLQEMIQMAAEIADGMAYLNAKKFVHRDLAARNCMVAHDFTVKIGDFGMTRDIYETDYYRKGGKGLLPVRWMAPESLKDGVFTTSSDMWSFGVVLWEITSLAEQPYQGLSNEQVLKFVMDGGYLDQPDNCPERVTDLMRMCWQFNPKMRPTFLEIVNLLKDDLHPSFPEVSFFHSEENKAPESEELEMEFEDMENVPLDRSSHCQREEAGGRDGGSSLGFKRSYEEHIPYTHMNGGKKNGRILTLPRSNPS
Method: as §1

[1] = molecular target: T1, KDR (baculovirus expressed human KDR kinase domain D807-V1356) (Homo sapiens, UniProt P35968); experiment: biochemical
T1 construct: human KDR kinase domain D807-V1356; host or cells: baculovirus expression system
T1 sequence (P35968 807-1356): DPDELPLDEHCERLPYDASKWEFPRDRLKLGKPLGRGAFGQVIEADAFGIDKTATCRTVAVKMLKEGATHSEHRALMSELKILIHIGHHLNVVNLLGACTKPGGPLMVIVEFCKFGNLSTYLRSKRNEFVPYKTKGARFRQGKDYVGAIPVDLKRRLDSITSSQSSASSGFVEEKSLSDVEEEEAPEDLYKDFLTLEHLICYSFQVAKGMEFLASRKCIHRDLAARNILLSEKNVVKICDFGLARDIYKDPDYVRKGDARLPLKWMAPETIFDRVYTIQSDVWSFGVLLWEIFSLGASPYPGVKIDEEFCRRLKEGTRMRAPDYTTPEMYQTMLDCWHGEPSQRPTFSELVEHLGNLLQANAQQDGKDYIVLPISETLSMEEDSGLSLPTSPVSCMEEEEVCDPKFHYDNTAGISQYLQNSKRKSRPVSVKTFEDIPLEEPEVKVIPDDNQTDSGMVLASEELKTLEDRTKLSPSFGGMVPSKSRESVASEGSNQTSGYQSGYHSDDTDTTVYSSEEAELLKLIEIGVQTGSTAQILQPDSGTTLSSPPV
In short: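 Luciferase-coupled chemiluminescence quantifies ATP left after a 4 h room-temperature reaction of KDR kinase domain (D807–V1356, baculovirus-expressed human). ATP set close to KM; inhibitors tested at 10 concentrations.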

Flt-1 = Flt-1 (Homo sapiens, UniProt P17948); experiment: Kinase assay, Flt-1 (33P-ATP incorporation or luciferase-coupled ATP consumption); type: biochemical; conditions: read-out: Flt1 IC50
In short: as §2

FGFR1 = FGFR1 (Homo sapiens, UniProt P11362); experiment: Kinase assay, FGFR1 (33P-ATP incorporation or luciferase-coupled ATP consumption); type: biochemical
Chain of FGFR1 (P11362 22-822, species assumed): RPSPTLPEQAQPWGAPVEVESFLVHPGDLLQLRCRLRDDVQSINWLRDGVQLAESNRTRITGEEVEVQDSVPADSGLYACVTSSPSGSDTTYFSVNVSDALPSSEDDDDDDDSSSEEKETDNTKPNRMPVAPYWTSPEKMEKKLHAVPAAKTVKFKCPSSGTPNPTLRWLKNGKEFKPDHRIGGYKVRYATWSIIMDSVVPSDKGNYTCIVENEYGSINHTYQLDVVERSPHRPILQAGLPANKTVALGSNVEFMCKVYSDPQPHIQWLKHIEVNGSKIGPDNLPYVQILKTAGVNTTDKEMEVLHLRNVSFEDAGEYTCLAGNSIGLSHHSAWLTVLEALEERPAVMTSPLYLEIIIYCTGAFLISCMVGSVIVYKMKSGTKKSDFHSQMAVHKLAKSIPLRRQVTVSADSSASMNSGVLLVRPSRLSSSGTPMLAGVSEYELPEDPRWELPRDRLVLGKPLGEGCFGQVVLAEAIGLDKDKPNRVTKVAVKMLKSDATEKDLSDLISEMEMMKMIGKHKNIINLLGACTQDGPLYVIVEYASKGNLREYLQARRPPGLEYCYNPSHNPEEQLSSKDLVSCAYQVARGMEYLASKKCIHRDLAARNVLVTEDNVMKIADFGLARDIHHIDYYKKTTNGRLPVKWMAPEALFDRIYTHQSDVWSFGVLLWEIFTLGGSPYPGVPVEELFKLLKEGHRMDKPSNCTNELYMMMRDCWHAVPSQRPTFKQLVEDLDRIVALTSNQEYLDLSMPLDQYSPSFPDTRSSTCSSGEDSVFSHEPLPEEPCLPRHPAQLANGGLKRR
In short: as §2

PDGFR alpha = PDGFR alpha (Homo sapiens, UniProt P16234); experiment: Kinase assay, PDGFR alpha (33P-ATP incorporation or luciferase-coupled ATP consumption); type: biochemical; conditions: read-out: PDGF-R-A IC50
Chain of PDGFR alpha (P16234 24-1089): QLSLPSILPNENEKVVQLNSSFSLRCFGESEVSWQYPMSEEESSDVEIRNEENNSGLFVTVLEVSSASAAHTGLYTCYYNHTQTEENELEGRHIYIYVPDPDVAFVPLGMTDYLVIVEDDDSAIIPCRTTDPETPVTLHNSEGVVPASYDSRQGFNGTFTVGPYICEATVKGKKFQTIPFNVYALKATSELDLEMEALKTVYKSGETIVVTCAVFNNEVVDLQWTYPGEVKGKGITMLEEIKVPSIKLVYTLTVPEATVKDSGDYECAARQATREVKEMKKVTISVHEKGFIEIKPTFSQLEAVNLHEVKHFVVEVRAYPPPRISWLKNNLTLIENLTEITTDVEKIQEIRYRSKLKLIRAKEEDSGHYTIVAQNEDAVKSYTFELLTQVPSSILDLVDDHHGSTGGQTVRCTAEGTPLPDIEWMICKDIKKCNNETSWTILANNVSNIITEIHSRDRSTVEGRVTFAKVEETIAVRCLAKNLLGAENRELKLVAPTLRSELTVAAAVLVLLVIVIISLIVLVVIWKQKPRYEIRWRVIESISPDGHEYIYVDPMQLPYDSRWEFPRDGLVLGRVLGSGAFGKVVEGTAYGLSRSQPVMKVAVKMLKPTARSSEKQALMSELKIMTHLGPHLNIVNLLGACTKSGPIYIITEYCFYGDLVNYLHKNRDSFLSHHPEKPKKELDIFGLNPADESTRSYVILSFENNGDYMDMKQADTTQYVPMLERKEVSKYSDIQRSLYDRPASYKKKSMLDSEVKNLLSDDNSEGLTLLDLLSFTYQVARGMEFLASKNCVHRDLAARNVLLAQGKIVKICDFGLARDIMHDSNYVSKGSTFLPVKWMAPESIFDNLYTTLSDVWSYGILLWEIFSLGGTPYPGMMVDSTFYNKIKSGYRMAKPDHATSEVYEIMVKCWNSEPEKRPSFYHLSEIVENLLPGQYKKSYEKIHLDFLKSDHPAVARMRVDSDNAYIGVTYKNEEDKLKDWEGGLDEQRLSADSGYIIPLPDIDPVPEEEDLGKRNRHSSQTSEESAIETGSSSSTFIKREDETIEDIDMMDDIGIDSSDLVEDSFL
In short: as §2

| SMILES | IC50 (c-Kit kinase) | IC50 (EphA2) | IC50 (EGFR) | IC50 (Fyn) | IC50 (IRK) | IC50 [1] | IC50 (Flt-1) | IC50 (FGFR1) | IC50 (PDGFR alpha) |
| --- | --- | --- | --- | --- | --- | --- | --- | --- | --- |
| COCCN1CCC(Nc2ccc3c(c2)/C(=C(\c2ccccc2)c2nc4ccccc4[nH]2)C(=O)N3)CC1 [Entry 24, (3Z)-3-[1H-benzimidazol-2-yl(phenyl)methylidene]-5-({1-[2-(methyloxy)ethyl]piperidin-4-yl}amino)-1,3-dihydro-2H-indol-2-one] | < 50 nM | 500 to 5000 nM | 50 to 500 nM | < 50 nM | 500 to 5000 nM |  |  |  |  |
| COCCN1CCC(Nc2ccc3c(c2)/C(=C(\c2cccc(F)c2)c2nc4ccccc4[nH]2)C(=O)N3)CC1 [Entry 46, (3Z)-3-[1H-benzimidazol-2-yl(3-fluorophenyl)methylidene]-5-({1-[2-(methyloxy)ethyl]piperidin-4-yl}amino)-1,3-dihydro-2H-indol-2-one] |  | 500 to 5000 nM | 50 to 500 nM | < 50 nM | 500 to 5000 nM | < 50 nM | 50 to 500 nM | 50 to 500 nM | < 50 nM |
| COCCN1CCC(Nc2ccc3c(c2)/C(=C(\c2ccc(F)cc2)c2nc4ccccc4[nH]2)C(=O)N3)CC1 [Entry 47, (3Z)-3-[1H-benzimidazol-2-yl(4-fluorophenyl)methylidene]-5-({1-[2-(methyloxy)ethyl]piperidin-4-yl}amino)-1,3-dihydro-2H-indol-2-one] |  | 500 to 5000 nM | 500 to 5000 nM | 50 to 500 nM | 500 to 5000 nM | < 50 nM | 500 to 5000 nM | 50 to 500 nM | < 50 nM |
| CCN1CCC(Nc2ccc3c(c2)/C(=C(\c2ccc(C)c(F)c2)c2nc4ccccc4[nH]2)C(=O)N3)CC1 [Entry 50, (3Z)-3-[1H-benzimidazol-2-yl(3-fluoro-4-methylphenyl)methylidene]-5-{(1-ethylpiperidin-4-yl)amino]-1,3-dihydro-2H-indol-2-one] |  | 500 to 5000 nM | < 50 nM | < 50 nM | 500 to 5000 nM | < 50 nM | < 50 nM | < 50 nM | < 50 nM |
| CCN1CCC(Nc2ccc3c(c2)/C(=C(\c2ccc(C(F)(F)F)cc2)c2nc(C)c[nH]2)C(=O)N3)CC1 [Entry 101] | 50 to 500 nM | 500 to 5000 nM | 50 to 500 nM | < 50 nM | 500 to 5000 nM | < 50 nM |  | < 50 nM | < 50 nM |
| CCN1CCC(Nc2ccc3c(c2)/C(=C(\c2ccc(F)c(F)c2)c2nc(C)c[nH]2)C(=O)N3)CC1 [Entry 104, (3Z)-3-[(3,4-difluorophenyl)(4-methyl-1H-imidazol-2-yl)methylidene]-5-[(1-ethylpiperidin-4-yl)amino]-1,3-dihydro-2H-indol-2-one] | 50 to 500 nM | 500 to 5000 nM | < 50 nM | < 50 nM | > 5000 nM | < 50 nM |  | < 50 nM | < 50 nM |
| CCN1CCC(Nc2ccc3c(c2)/C(=C(\c2ccc(F)c(Cl)c2)c2nc(C)c[nH]2)C(=O)N3)CC1 [Entry 105, (3Z)-3-[(3-chloro-4-fluorophenyl)(4-methyl-1H-imidazol-2-yl)methylidene]-5-[(1-ethylpiperidin-4-yl)amino]-1,3-dihydro-2H-indol-2-one] | 50 to 500 nM | 500 to 5000 nM | 50 to 500 nM | < 50 nM | 500 to 5000 nM | < 50 nM |  | < 50 nM | < 50 nM |
| CCN1CCC(Nc2ccc3c(c2)/C(=C(\c2ccc(F)cc2)c2nc(C)c[nH]2)C(=O)N3)CC1 [Entry 106, (3Z)-5-[(1-ethylpiperidin-4-yl)amino]-3-[(4-fluorophenyl)(4-methyl-1H-imidazol-2-yl)methylidene]-1,3-dihydro-2H-indol-2-one] | 50 to 500 nM | 500 to 5000 nM | 50 to 500 nM | < 50 nM | 500 to 5000 nM | < 50 nM |  | 50 to 500 nM | < 50 nM |

The next lines start with the values.

| IC50 (c-Kit kinase) | IC50 (EphA2) | IC50 (EGFR) | IC50 (Fyn) | IC50 (IRK) | IC50 [1] | IC50 (Flt-1) | IC50 (FGFR1) | IC50 (PDGFR alpha) | SMILES |
| --- | --- | --- | --- | --- | --- | --- | --- | --- | --- |
|  | 500 to 5000 nM | 50 to 500 nM | < 50 nM | > 5000 nM | < 50 nM | 50 to 500 nM | < 50 nM | < 50 nM | CCN1CCC(Nc2ccc3c(c2)/C(=C(\c2cccc(Cl)c2)c2ncc[nH]2)C(=O)N3)CC1 [Entry 48, (3Z)-3-[(3-chlorophenyl)(1H-imidazol-2-yl)methylidene]-5-[(1-ethylpiperidin-4-yl)amino]-1,3-dihydro-2H-indol-2-one] |
| < 50 nM | 500 to 5000 nM | 500 to 5000 nM | < 50 nM | > 5000 nM | < 50 nM |  | < 50 nM | < 50 nM | CCN1CCC(Nc2ccc3c(c2)/C(=C(\c2ccc(F)c(Cl)c2)c2ncc[nH]2)C(=O)N3)CC1 [Entry 53, (3Z)-3-[(3-chloro-4-fluorophenyl) (1H-imidazol-2-yl)methylidene]-5-[(1-ethylpiperidin-4-yl)amino]-1,3-dihydro-2H-indol-2-one] |
| 50 to 500 nM | 500 to 5000 nM | 500 to 5000 nM | < 50 nM | > 5000 nM | < 50 nM |  | < 50 nM | < 50 nM | CCN1CCC(Nc2ccc3c(c2)/C(=C(\c2ccc(F)c(F)c2)c2ncc[nH]2)C(=O)N3)CC1 [Entry 54, (3Z)-3-[(3,4-difluorophenyl)(1H-imidazol-2-yl)methylidene]-5-[(1-ethylpiperidin-4-yl)amino]-1,3-dihydro-2H-indol-2-one] |
| 50 to 500 nM | 500 to 5000 nM | 500 to 5000 nM | < 50 nM | > 5000 nM | < 50 nM |  | < 50 nM | < 50 nM | CCN1CCC(Nc2ccc3c(c2)/C(=C(\c2ccc(C(F)(F)F)cc2)c2ncc[nH]2)C(=O)N3)CC1 [Entry 60, (3Z)-5-[(1-ethylpiperidin-4-yl)amino]-3-{1H-imidazol-2-yl[4-(trifluoromethyl)phenyl]methylidene}-1,3-dihydro-2H-indol-2-one] |
| 50 to 500 nM | 500 to 5000 nM | 50 to 500 nM | < 50 nM | > 5000 nM | < 50 nM |  | < 50 nM | < 50 nM | CCN1CCC(Nc2ccc3c(c2)/C(=C(\c2ccc(C(F)(F)F)c(F)c2)c2ncc[nH]2)C(=O)N3)CC1 [Entry 65, (3Z)-5-[(1-ethylpiperidin-4-yl)amino]-3-[[3-fluoro-4-(trifluoromethyl)phenyl](1H-imidazol-2-yl)methylidene]-1,3-dihydro-2H-indol-2-one] |
| 50 to 500 nM | 500 to 5000 nM | 50 to 500 nM | < 50 nM | > 5000 nM | < 50 nM |  | < 50 nM | < 50 nM | CCN1CCC(Nc2ccc3c(c2)/C(=C(\c2cc(F)cc(F)c2)c2ncc[nH]2)C(=O)N3)CC1 [Entry 73, (3Z)-3-[(3,5-difluorophenyl)(1H-imidazol-2-yl)methylidene]-5-[(1-ethylpiperidin-4-yl)amino]-1,3-dihydro-2H-indol-2-one] |
| < 50 nM | 500 to 5000 nM | 50 to 500 nM | < 50 nM | 500 to 5000 nM | < 50 nM |  | < 50 nM | < 50 nM | CCN1CCC(Nc2ccc3c(c2)/C(=C(/c2ncc[nH]2)c2ccc(C(F)(F)F)cc2F)C(=O)N3)CC1 [Entry 100, (3Z)-5-[(1-ethylpiperidin-4-yl)amino]-3-[[2-fluoro-4-(trifluoromethyl)phenyl] (1H-imidazol-2-yl)methylidene]-1,3-dihydro-2H-indol-2-one] |
| 50 to 500 nM | 500 to 5000 nM | < 50 nM | < 50 nM | 500 to 5000 nM | < 50 nM |  | < 50 nM |  | CCN1CCC(Nc2ccc3c(c2)/C(=C(\c2ccc(C(F)(F)F)c(F)c2)c2nc(C)c[nH]2)C(=O)N3)CC1 [Entry 103, (3Z)-5-[(1-ethylpiperidin-4-yl)amino]-3-[[3-fluoro-4-(trifluoromethyl)phenyl](4-methyl-1H-imidazol-2-yl)methylidene]-1,3-dihydro-2H-indol-2-one] |
| < 50 nM | 500 to 5000 nM | 50 to 500 nM | < 50 nM | 500 to 5000 nM | < 50 nM |  | < 50 nM | < 50 nM | CCN1CCC(Nc2ccc3c(c2)/C(=C(/c2ncc[nH]2)c2ccccc2F)C(=O)N3)CC1 [Entry 107, (3Z)-5-[(1-ethylpiperidin-4-yl)amino]-3-[(2-fluorophenyl)(1H-imidazol-2-yl)methylidene]-1,3-dihydro-2H-indol-2-one] |
